“Also recorded” adds a separate entry of the source.
Columns and labels:
Piezo1 = molecular target: T1, Piezo1 (Mus musculus, UniProt E2JF22); assay: Activation of Piezo1 in MLO-Y4 cells, overall conclusion from gene expression and calcium influx; assay type: cell-based, murine
T1 construct: To identify Piezo1 stimulators, we treated MLO-Y4 cells with compounds; endogenous in cells; host or cells: MLO-Y4 (murine osteocyte-like cell line); control sh-Luc cells, with sh-Piezo1 knock-down cells as the specificity control
T1 sequence (E2JF22 whole entry): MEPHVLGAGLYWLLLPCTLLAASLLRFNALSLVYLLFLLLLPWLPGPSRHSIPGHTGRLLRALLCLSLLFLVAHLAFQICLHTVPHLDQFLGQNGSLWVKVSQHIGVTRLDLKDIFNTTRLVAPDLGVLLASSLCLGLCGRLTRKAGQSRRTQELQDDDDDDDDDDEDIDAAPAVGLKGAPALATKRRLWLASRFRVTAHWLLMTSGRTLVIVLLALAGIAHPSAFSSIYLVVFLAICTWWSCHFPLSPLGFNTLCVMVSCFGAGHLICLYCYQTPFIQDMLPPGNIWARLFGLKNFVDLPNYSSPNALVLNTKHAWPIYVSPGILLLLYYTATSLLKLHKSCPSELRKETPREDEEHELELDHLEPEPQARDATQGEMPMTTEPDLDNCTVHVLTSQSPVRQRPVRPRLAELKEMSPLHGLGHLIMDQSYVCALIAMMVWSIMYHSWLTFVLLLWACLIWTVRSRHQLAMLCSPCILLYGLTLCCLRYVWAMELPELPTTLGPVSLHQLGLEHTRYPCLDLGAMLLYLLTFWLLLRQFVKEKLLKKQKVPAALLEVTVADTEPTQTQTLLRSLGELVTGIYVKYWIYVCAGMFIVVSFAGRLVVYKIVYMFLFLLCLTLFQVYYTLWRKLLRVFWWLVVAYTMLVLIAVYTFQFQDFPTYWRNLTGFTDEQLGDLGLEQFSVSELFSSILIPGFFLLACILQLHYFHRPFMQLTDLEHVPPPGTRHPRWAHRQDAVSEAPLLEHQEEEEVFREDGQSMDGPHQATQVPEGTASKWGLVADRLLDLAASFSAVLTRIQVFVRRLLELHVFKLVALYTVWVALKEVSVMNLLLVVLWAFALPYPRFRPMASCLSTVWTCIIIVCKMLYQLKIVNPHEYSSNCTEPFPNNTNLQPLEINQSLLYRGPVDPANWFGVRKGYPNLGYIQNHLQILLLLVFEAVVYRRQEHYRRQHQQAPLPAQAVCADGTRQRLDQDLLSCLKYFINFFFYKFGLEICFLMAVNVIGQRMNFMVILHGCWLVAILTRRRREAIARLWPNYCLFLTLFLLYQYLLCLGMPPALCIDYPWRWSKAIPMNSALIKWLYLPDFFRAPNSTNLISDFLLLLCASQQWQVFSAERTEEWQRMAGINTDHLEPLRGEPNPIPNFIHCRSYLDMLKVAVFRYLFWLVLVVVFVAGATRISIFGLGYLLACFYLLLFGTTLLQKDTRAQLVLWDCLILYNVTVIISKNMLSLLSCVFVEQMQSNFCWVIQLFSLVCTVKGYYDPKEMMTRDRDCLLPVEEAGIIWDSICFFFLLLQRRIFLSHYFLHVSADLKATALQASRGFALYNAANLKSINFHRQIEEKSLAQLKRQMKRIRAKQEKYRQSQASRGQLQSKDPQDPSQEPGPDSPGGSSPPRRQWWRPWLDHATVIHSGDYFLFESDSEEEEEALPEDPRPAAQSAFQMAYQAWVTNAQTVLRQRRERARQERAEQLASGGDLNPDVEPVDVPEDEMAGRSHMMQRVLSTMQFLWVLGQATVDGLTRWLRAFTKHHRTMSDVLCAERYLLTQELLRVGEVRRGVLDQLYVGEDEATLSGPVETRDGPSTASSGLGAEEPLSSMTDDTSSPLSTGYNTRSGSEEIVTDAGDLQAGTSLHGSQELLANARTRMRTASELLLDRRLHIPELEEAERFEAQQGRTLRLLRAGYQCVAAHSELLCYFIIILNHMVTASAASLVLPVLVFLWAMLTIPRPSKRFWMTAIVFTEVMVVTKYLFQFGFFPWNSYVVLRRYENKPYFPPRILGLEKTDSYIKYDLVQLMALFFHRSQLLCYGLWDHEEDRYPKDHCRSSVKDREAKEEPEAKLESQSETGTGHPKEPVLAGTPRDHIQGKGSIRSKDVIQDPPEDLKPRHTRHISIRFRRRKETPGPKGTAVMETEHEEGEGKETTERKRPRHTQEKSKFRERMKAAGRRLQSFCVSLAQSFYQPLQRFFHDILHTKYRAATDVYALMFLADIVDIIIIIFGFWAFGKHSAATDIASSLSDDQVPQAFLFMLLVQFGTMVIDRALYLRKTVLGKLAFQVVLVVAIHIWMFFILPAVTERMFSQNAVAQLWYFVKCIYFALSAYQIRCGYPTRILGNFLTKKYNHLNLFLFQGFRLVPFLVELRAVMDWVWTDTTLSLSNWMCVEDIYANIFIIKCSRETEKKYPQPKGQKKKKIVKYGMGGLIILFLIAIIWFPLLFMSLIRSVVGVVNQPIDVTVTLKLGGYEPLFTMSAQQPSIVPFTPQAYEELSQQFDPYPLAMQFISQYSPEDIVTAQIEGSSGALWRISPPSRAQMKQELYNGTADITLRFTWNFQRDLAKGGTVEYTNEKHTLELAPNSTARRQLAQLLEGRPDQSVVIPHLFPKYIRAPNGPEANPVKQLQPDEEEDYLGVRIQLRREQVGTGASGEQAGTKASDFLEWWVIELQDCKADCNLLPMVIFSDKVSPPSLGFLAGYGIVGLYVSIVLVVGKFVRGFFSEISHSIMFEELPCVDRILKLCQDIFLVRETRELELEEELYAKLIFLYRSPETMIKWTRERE
Procedure: To identify Piezo1 stimulators, we treated MLO-Y4 cells with compounds Yoda1, YW-3-159, W-3-163, W-3-168-1, W-3-168-2, W-3-170, W-3-173-1, W-3-173-2, and YW-3-174. Gene expression of Wnt1, Ptgs2, and Tnfrsf11b was measured to determine the activation of Piezo1. In addition, intracellular calcium concentration was measured to determine the activity of Piezo1 channel. […] Yoda1 was used as a positive control in all experiments.

[1] = system: osteocyte-enriched cortical bone; assay: Wnt1 expression in tibia after one Yoda1 injection; assay type: in vivo; details: 4-month-old female C57BL/6J mice, one injection 5 μmol/kg intraperitoneally, tibiae 4 hours later
Procedure: To quantify cancellous bone formation, we injected mice with calcein (20 mg/kg body weight) intraperitoneally 7 and 3 days before harvest. To quantify periosteal and endocortical bone formation, we injected mice with calcein (20 mg/kg body weight) and Alizarin Red (20 mg/kg body weight) 10 and 3 days before harvest. For gene expression, we injected Yoda1 into 4-month-old female C57BL/6J mice one time and harvested tibiae 4 hours later for RNA extraction. For bone mass evaluation, we injected Yoda1 into 4-month-old female C57BL/6J mice 5 consecutive days per week for 2 weeks (day 1-5 and day 8-12) and harvested the mice at day 15 for analysis. […]
Quantitative PCR. […] We performed quantitative RT-PCR using the following Taqman assays from Applied Biosystems: Piezo1 (Mm01241549_m1); Piezo2 (Mm01265861_m1); Ptgs2 (Mm00478374_m1); Cyr61 (Mm00487498_m1); Wnt1 (Mm01300-555_g1); Yap1 (Mm011432-63_m1); Taz (Mm01289583_m1); Tnfsf11 Mm00441906_m1; Tnfrsf11b (Mm00435452_m1); Sost (Mm00470479_m1); and ribosomal protein S2 (Mrps2) (Mm00475529_m1). We calculated relative mRNA amounts using the ΔCt method (Livak and Schmittgen, 2001). […] We obtained two custom Taqman assays from Applied Biosystems for quantifying Piezo1 gene deletion efficiency: one specific for sequences between the loxP sites and the other specific for sequences downstream from the 3′ loxP site.

C57BL/6J mice [2] = assay: Serum osteocalcin and CTX ELISA after 2 weeks of administration; assay type: in vivo; details: 4-month-old female C57BL/6J mice, 5 μmol/kg intraperitoneally, 5 days per week for 2 weeks
Procedure: (§1) To quantify cancellous bone formation, we injected mice with calcein (20 mg/kg body weight) intraperitoneally 7 and 3 days before harvest. To quantify periosteal and endocortical bone formation, we injected mice with calcein (20 mg/kg body weight) and Alizarin Red (20 mg/kg body weight) 10 and 3 days before harvest. For gene expression, we injected Yoda1 into 4-month-old female C57BL/6J mice one time and harvested tibiae 4 hours later for RNA extraction. For bone mass evaluation, we injected Yoda1 into 4-month-old female C57BL/6J mice 5 consecutive days per week for 2 weeks (day 1-5 and day 8-12) and harvested the mice at day 15 for analysis. Yoda1 (Sigma, St. Louis, MO) was dissolved in DMSO at 40 mM as a stock, diluted in 5% ethanol, and injected intraperitoneally at 5 μmol/kg body weight. Mice were rank-ordered by body weight and then assigned to Veh or Yoda1 groups to give identical group means. All investigators involved in data collection were blinded as to the genotype and group of the mice.
Osteocalcin and CTX ELISA. Circulating osteocalcin and CTX in serum was measured using a mouse Osteocalcin enzyme immunoassay kit (Thermo Fisher) and RatLaps™ (CTX-I) EIA kit (Immunodiagnostic Systems, Boldon, UK) respectively according to the manual provided by manufacturers. Blood was collected by retro-orbital bleeding into 1.7 mL microcentrifuge tubes. […]

C57BL/6J mice [3] = assay: In vivo bone mass evaluation by μCT and body weight after 2 weeks of administration; details: 4-month-old female C57BL/6J mice, 5 μmol/kg intraperitoneally, 5 days per week for 2 weeks
Procedure: as §1
Skeletal analysis. Tibial X-rays were obtained using an UltraFocus X-ray machine (Faxitron Bioptics, Tucson, Arizona) and BMD of the lumbar spine and femur were measured by dual-energy X-ray absorptiometry using a PIXImus Densitometer (GE-Lunar Corp.) Three dimensional bone volume and architecture of L4 vertebra, femur, and tibia were measured by μCT (model μCT40, Scanco Medical, Wayne, PA). The femur, vertebrae (L4), or tibia, were cleaned of soft tissues and fixed in 10% Millonig's formalin for 24 hours. Bone were then gradually dehydrated into 100% ethanol. Bone samples were loaded into a 12.3 mm diameter scanning tube and images acquired in the μCT40. The scans were integrated into 3D voxel images (1024×1024 pixel matrices for each individual planar stack) and a Gaussian filter (sigma=0.8, support=1) was used to reduce signal noise. Scanco Eval Program v.6.0 was used for measuring bone volume. A threshold of 220 mg/cm^3 was applied to all scans at medium resolution (E=55 kVp, I=145 μA, integration time=200 ms) for trabecular bone measurements. The cortical bone and the primary spongiosa were manually excluded from the analysis. Trabecular bone measurements at the distal femur were made on 151 slices beginning 8-10 slices away from the growth plate and proceeding proximally. […] All trabecular measurements were made by drawing contours every 10 to 20 slices and voxel counting was used for bone volume per tissue volume and sphere filling distance transformation indices, without pre-assumptions about the bone shape as a rod or plate for trabecular microarchitecture. Femoral cortical thickness, periosteal circumference, and endocortical circumference were measured at the mid-diaphysis. For tibial cortical thickness, we analyzed 18 slices 5 mm proximal from the distal tibiofibular junction. Vertebral cortical bone thickness was determined on the ventral cortical wall using contours of cross-sectional images, drawn to exclude trabecular bone. Cortical analysis were measured at a threshold of 260 mg/cm^3. Calibration and quality control were performed weekly using five density standards and spatial resolution was verified monthly using a tungsten wire rod. We based beam-hardening correction on the calibration records. Corrections for 200 mg hydroxyapatite were made for all energies.

femoral cortical bone = assay: Ex vivo femoral cortical bone organ culture, qPCR; assay type: cell-based; details: cortical bone organ culture from 5-week-old mice, 10 μM, 4 hours, vs DMSO
Procedure: Femoral organ culture. Female mice at 5 weeks of age were euthanized in a CO2 chamber. Femurs were dissected and both ends were removed in a culture hood. Bone marrow was then flushed out using PBS and the periosteal surface was scraped to remove periosteal cells. Femoral shafts were then cultured in a 12-well-plate with 1 ml of α-MEM supplemented with 10% FBS and 1% penicillin/streptomycin/glutamine for 24 hours. We then treated femur shafts with 10 μM Yoda1 (Sigma, St. Louis, MO) or DMSO for 4 hours. Femur shafts were then collected for RNA isolation and qPCR analysis. Ex vivo femoral organ culture was repeated twice with three biological replicates.
Quantitative PCR. Organs and whole bones were harvested from animals, removed of soft tissues, and stored immediately in liquid nitrogen. We prepared osteocyte-enriched bone by removing the ends of femurs and tibias and then flushing the bone marrow with PBS. We then scraped the bone surface with a scalpel and froze them in liquid nitrogen for later RNA isolation, or decalcified them for genomic DNA isolation. We isolated total RNA using TRIzol (Life technologies, NY), according to the manufacturer's instructions and prepared cDNA using High Capacity first strand cDNA synthesis kit (Life Technologies). We performed quantitative RT-PCR using the following Taqman assays from Applied Biosystems: Piezo1 (Mm01241549_m1); Piezo2 (Mm01265861_m1); Ptgs2 (Mm00478374_m1); Cyr61 (Mm00487498_m1); Wnt1 (Mm01300-555_g1); Yap1 (Mm011432-63_m1); Taz (Mm01289583_m1); Tnfsf11 Mm00441906_m1; Tnfrsf11b (Mm00435452_m1); Sost (Mm00470479_m1); and ribosomal protein S2 (Mrps2) (Mm00475529_m1). We calculated relative mRNA amounts using the ΔCt method (Livak and Schmittgen, 2001). We isolated genomic DNA from decalcified cortical bone after digestion with proteinase K and phenol/chloroform extraction. We obtained two custom Taqman assays from Applied Biosystems for quantifying Piezo1 gene deletion efficiency: one specific for sequences between the loxP sites and the other specific for sequences downstream from the 3′ loxP site.

Compound | Piezo1 agonist activity (conclusion in words) (Piezo1; MLO-Y4 cells) | activity in activating Piezo1 compared to Yoda1 (Piezo1; MLO-Y4 cells in vitro) | Wnt1 expression in osteocyte-enriched cortical bone in vivo [1] | serum levels of CTX, a bone resorption marker (C57BL/6J mice [2]) | serum levels of osteocalcin, a bone formation marker (C57BL/6J mice [2]) | body weight (C57BL/6J mice [3]) | cancellous bone mass in the distal femur (C57BL/6J mice [3]) | cancellous bone volume in vertebrae (C57BL/6J mice [3]) | cortical thickness in the distal femur (C57BL/6J mice [3]) | cortical thickness in the vertebra (C57BL/6J mice [3]) | Cyr61 expression (femoral cortical bone) | Ptgs2 expression (femoral cortical bone) | Sost expression (femoral cortical bone) | Tnfrsf11b expression (femoral cortical bone) | Wnt1 expression (femoral cortical bone)
Fc1ccc(Cl)c(CSc2nnc(-c3cnccn3)s2)c1Cl [YW-3-170] | potent agonists for Piezo1; also recorded: potent and specific Piezo1 agonists | comparable or superior activity | – | – | – | – | – | – | – | – | – | – | – | – | –
Clc1cccc(Cl)c1CSc1nnc(-c2cnccn2)s1 [Yoda1] | – | – | increased | did not observe changes | increased | did not alter | increased | did not detect changes | increased | increased | promoted expression | promoted expression | decreased | promoted expression | promoted expression

From patent US20240059685A1, “PIEZO1 AGONISTS FOR THE PROMOTION OF BONE FORMATION” (BIOVENTURES, LLC, priority 2019, published 2024)
